Assay results taken from patent publication US20200002303A1, “C-GLYCOSIDE COMPOUNDS USEFUL FOR TREATING DISEASE” (Fimbrion Therapeutics, Inc., priority 2016, published 2020).

molecular target: T1, FimH (Escherichia coli, UniProt Q1R2J4); assay: not given; assay type: cell-based; conditions: concentration reducing bacterial agglutination of guinea pig red blood cells by greater than 90%; UTI89 bacteria
T1 construct: performed with UTI89 bacteria and guinea pig red blood cells; endogenous in cells; host or cells: UTI89 bacteria (whole cells, type 1 piliated)
Protocol: The hemagglutination inhibition (HAI) assay was performed with UTI89 bacteria and guinea pig red blood cells, as previously described (S. J. Hultgren, W. R. Schwan, A. J. Schaeffer, J. L. Duncan Infect. Immun. 1986, 54, 613-620).

| SMILES | HAI titer EC>90 [µM] |
| --- | --- |
| Cc1cc(-c2ccc3ccnc(N)c3c2)ccc1[C@@H](O)[C@H]1O[C@H](CO)[C@@H](O)[C@H](O)[C@@H]1O [Example 3, (2R,3S,4S,5S,6R)-2-((R)-(4-(1-aminoisoquinolin-7-yl)-2-methylphenyl)(hydroxy)methyl)-6-(hydroxymethyl)tetrahydro-2H-pyran-3,4,5-triol] | 0.006 |
| Cc1cc(-c2ccc3c(c2)C(=O)NCC3)ccc1[C@@H](O)[C@H]1O[C@H](CO)[C@@H](O)[C@H](O)[C@@H]1O [Example 4, 7-(4-((R)-hydroxy((2R,3S,4S,5S,6R)-3,4,5-trihydroxy-6-(hydroxymethyl)tetrahydro-2H-pyran-2-yl)methyl)-3-methylphenyl)-3,4-dihydroisoquinolin-1 (2H)-one] | 0.008 |
| CNC(=O)c1cccc(-c2ccc([C@H](O)[C@H]3OC(CO)[C@@H](O)[C@H](O)C3O)c(C(F)(F)F)c2)c1 (single isomer, unassigned) [Example 40] | 5 |
| Cc1cc(-c2ccc3cnccc3c2)ccc1[C@@H](O)[C@H]1O[C@H](CO)[C@@H](O)[C@H](O)[C@@H]1O [Example 10, (2R,3S,4S,5S,6R)-2-((R)-Hydroxy (4-(isoquinolin-6-yl)-2-methylphenyl)methyl)-6-(hydroxymethyl)-tetrahydro-2H-pyran-3,4,5-triol] | 0.052 |
| Cc1cc(-c2ccc3c(c2)C(=O)N(C(C)C)CC3)ccc1[C@@H](O)[C@H]1O[C@H](CO)[C@@H](O)[C@H](O)[C@@H]1O [Example 32, 7-(4-((R)-Hydroxy ((2R,3S,4S,5S,6R)-3,4,5-trihydroxy-6-(hydroxymethyl)-tetrahydro-2H-pyran-2-yl)methyl)-3-methylphenyl)-2-isopropyl-3,4-dihydroisoquinolin-1 (2H)-one] | 0.006 |
| Cc1cc(-c2ccc3onc(C)c3c2)ccc1[C@@H](O)[C@H]1O[C@H](CO)[C@@H](O)[C@H](O)[C@@H]1O [Example 20, (2R,3S,4S,5S,6R)-2-((R)-Hydroxy (2-methyl-4-(3-methylbenzo[d]isoxazol-5-yl)phenyl)methyl)-6-(hydroxymethyl)-tetrahydro-2H-pyran-3,4,5-triol] | 0.068 |
| CNC(=O)c1cccc(-c2ccc(C(OC)[C@H]3O[C@H](CO)[C@@H](O)[C@H](O)[C@@H]3O)cc2C)c1 (single isomer, unassigned) [Example 8] | 0.5 |
| Cc1cc(-c2cccc3c(N)n[nH]c23)ccc1[C@@H](O)[C@H]1O[C@H](CO)[C@@H](O)[C@H](O)[C@@H]1O [Example 18, (2R,3S,4S,5S,6R)-2-((R)-(4-(3-Amino-1H-indazol-7-yl)-2-methylphenyl) (hydroxy)methyl)-6-(hydroxymethyl)-tetrahydro-2H-pyran-3,4,5-triol] | 0.006 |
| Cc1cc(-c2cccc(C(=O)Nc3ccccn3)c2)ccc1[C@@H](O)[C@H]1O[C@H](CO)[C@@H](O)[C@H](O)[C@@H]1O [Example 37, 4′-((R)-Hydroxy ((2R,3S,4S,5S,6R)-3,4,5-trihydroxy-6-(hydroxymethyl)-tetrahydro-2H-pyran-2-yl)methyl)-5′-methyl-N-(pyridin-2-yl)biphenyl-3-carboxamide] | 0.012 |
| CNC(=O)c1cccc(-c2ccc([C@@H](N=[N+]=[N-])[C@H]3O[C@H](CO)[C@@H](O)[C@H](O)[C@@H]3O)c(C)c2)c1 [Example 44, 4′-((R)-azido((2R,3S,4R,5S,6R)-3,4,5-trihydroxy-6-(hydroxymethyl)tetrahydro-2H-pyran-2-yl)methyl)-N,3′-dimethylbiphenyl-3-carboxamide] | 0.062 |
| Cc1cc(-c2ccc3ccn(C(C)C)c(=O)c3c2)ccc1[C@@H](O)[C@H]1O[C@H](CO)[C@@H](O)[C@H](O)[C@@H]1O [Example 31, 7-(4-((R)-Hydroxy ((2R,3S,4S,5S,6R)-3,4,5-trihydroxy-6-(hydroxymethyl)-tetrahydro-2H-pyran-2-yl)methyl)-3-methylphenyl)-2-isopropylisoquinolin-1 (2H)-one] | 0.006 |
| Cc1cc(-c2ccc3ncccc3c2)ccc1[C@@H](O)[C@H]1O[C@H](CO)[C@@H](O)[C@H](O)[C@@H]1O [Example 14, (2R,3S,4S,5S,6R)-2-((R)-Hydroxy (2-methyl-4-(quinolin-6-yl)phenyl)methyl)-6-(hydroxymethyl)-tetrahydro-2H-pyran-3,4,5-triol] | 0.032 |
| Cc1cc(-c2cccc(C(=O)N(C)C)c2)ccc1[C@@H](O)[C@H]1O[C@H](CO)[C@@H](O)[C@H](O)[C@@H]1O [Example 41, 4′-((R)-Hydroxy ((2R,3S,4S,5S,6R)-3,4,5-trihydroxy-6-(hydroxymethyl)-tetrahydro-2H-pyran-2-yl)methyl)-N,N,5′-trimethylbiphenyl-3-carboxamide] | 0.057 |
| Cc1cc(-c2ccnc(N(C)C)c2)ccc1[C@@H](O)[C@H]1O[C@H](CO)[C@@H](O)[C@H](O)[C@@H]1O [Example 27, (2R,3S,4S,5S,6R)-2-((R)-(4-(2-(Dimethylamino)pyridin-4-yl)-2-methylphenyl) (hydroxy)methyl)-6-(hydroxymethyl)-tetrahydro-2H-pyran-3,4,5-triol] | 0.016 |
| Cc1cc(-c2ccnc(N3CCOCC3)c2)ccc1[C@@H](O)[C@H]1O[C@H](CO)[C@@H](O)[C@H](O)[C@@H]1O [Example 25, (2R,3S,4S,5S,6R)-2-((R)-Hydroxy (2-methyl-4-(2-morpholinopyridin-4-yl)phenyl)methyl)-6-(hydroxymethyl)-tetrahydro-2H-pyran-3,4,5-triol] | 0.006 |
| Cc1cc(N=[N+]=[N-])ccc1[C@@H](O)[C@H]1O[C@H](CO)[C@@H](O)[C@H](O)[C@@H]1O [Example 47, (2R,3S,4S,5S,6R)-2-((R)-(4-azido-2-methylphenyl)(hydroxy)methyl)-6-(hydroxymethyl)tetrahydro-2H-pyran-3,4,5-triol] | 0.25 |
| Cc1cc(-n2cc(-c3ccccc3)nn2)ccc1[C@@H](O)[C@H]1O[C@H](CO)[C@@H](O)[C@H](O)[C@@H]1O [Example 48, (2R,3S,4S,5S,6R)-2-((R)-hydroxy(2-methyl-4-(4-phenyl-1H-1,2,3-triazol-1-yl)phenyl)methyl)-6-(hydroxymethyl)tetrahydro-2H-pyran-3,4,5-triol] | 0.016 |
| Cc1cc(-c2ccc3ncn(C)c3c2)ccc1[C@@H](O)[C@H]1O[C@H](CO)[C@@H](O)[C@H](O)[C@@H]1O [Example 16, (2R,3S,4S,5S,6R)-2-((R)-Hydroxy (2-methyl-4-(3-methyl-3H-benzo[d]imidazol-5-yl)phenyl)methyl)-6-(hydroxymethyl)-tetrahydro-2H-pyran-3,4,5-triol] | 0.042 |
| Cc1cc(-c2ccnc(-c3ccnc(Cl)c3)c2)ccc1[C@@H](O)[C@H]1O[C@H](CO)[C@@H](O)[C@H](O)[C@@H]1O [Example 23, (2R,3S,4S,5S,6R)-2-((R)-(4-(2′-Chloro-[2,4′-bipyridin]-4-yl)-2-methylphenyl) (hydroxy)methyl)-6-(hydroxymethyl)tetrahydro-2H-pyran-3,4,5-triol] | 0.008 |
| CNC(=O)c1cc(-c2ccc([C@@H](O)[C@H]3O[C@H](CO)[C@@H](O)[C@H](O)[C@@H]3O)c(C)c2)ccc1C#N [Example 43, 4-Cyano-4′-((R)-hydroxy ((2R,3S,4S,5S,6R)-3,4,5-trihydroxy-6-(hydroxymethyl)-tetrahydro-2H-pyran-2-yl)methyl)-N,5′-dimethylbiphenyl-3-carboxamide] | 0.006 |
| Cc1cc(-c2cn3ccccc3n2)ccc1[C@@H](O)[C@H]1O[C@H](CO)[C@@H](O)[C@H](O)[C@@H]1O [Example 36, (2R,3S,4S,5S,6R)-2-((R)-Hydroxy (4-(imidazo[1,2-a]pyridin-2-yl)-2-methylphenyl)methyl)-6-(hydroxymethyl)-tetrahydro-2H-pyran-3,4,5-triol] | 0.019 |
| CNC(=O)c1cccc(-c2ccc([C@@H](O)[C@H]3O[C@H](CO)[C@@H](O)[C@H](O)[C@@H]3O)c(Cl)c2)c1 [Example 45, 3′-chloro-4′-((R)-hydroxy((2R,3S,4S,5S,6R)-3,4,5-trihydroxy-6-(hydroxymethyl)tetrahydro-2H-pyran-2-yl)methyl)-N-methylbiphenyl-3-carboxamide] | 0.047 |

test system: UTI89 bacteria; assay: Biofilm inhibition assay with UTI89 bacteria; assay type: cell-based; conditions: read-out: Biofilm prevention IC50
Protocol: The biofilm inhibition assay was performed with UTI89 bacteria as previously described (L. Cegelski, J. S. Pinkner, N. D. Hammer, C. K. Cusumano, C. S. Hung, E. Chorell, V. Aberg, J. N. Walker, P. C. Seed, F. Almqvist, M. R. Chapman, S. J. Hultgren Nature Chem. Biol. 2009, 5, 913-919). Compounds not listed were not tested.

| SMILES | IC50 [µM] |
| --- | --- |
| Cc1cc(-c2ccc3ccnc(N)c3c2)ccc1[C@@H](O)[C@H]1O[C@H](CO)[C@@H](O)[C@H](O)[C@@H]1O [Example 3, (2R,3S,4S,5S,6R)-2-((R)-(4-(1-aminoisoquinolin-7-yl)-2-methylphenyl)(hydroxy)methyl)-6-(hydroxymethyl)tetrahydro-2H-pyran-3,4,5-triol] | 0.04 |
| Cc1cc(-c2ccc3c(c2)C(=O)NCC3)ccc1[C@@H](O)[C@H]1O[C@H](CO)[C@@H](O)[C@H](O)[C@@H]1O [Example 4, 7-(4-((R)-hydroxy((2R,3S,4S,5S,6R)-3,4,5-trihydroxy-6-(hydroxymethyl)tetrahydro-2H-pyran-2-yl)methyl)-3-methylphenyl)-3,4-dihydroisoquinolin-1 (2H)-one] | 0.04 |

molecular target: T2, FimHL (Escherichia coli, UniProt P08191); assay: Differential scanning fluorimetry (DSF) with purified FimHL; assay type: binding; conditions: FimHL 10 μM with mannoside 100 μM, SYPRO Orange, HEPES pH 7.5; Tm from Boltzmann fit
T2 construct: Purified FimHL (10 μM) in the absence or presence of mannoside (100 μM)
Protocol: Purified FimHL (10 μM) in the absence or presence of mannoside (100 μM) was combined with 5×SYPRO Orange in a 50 μl reaction mixture buffered in 20 mM HEPES pH 7.5, 150 mM NaCl (HBS) and 0.4% DMSO. Binding equilibria were established by allowing the reaction mixtures to incubate at 23° C. for 30 min. These reaction mixtures were then placed in 96-well clear-bottom PCR plates and subjected to a melt curve from 20-90° C. in 0.5° C. increments of 15 seconds, each followed by a fluorescence read of the “HEX” channel in a Bio-Rad CFX96 thermocycler (Bio-Rad, Hercules, Calif.). Melt curves were fitted to the Boltzmann equation (y=A2+(A1−A2)/(1+exp((x−xo)/dx)) where xo is the Tm) to determine the melting temperature (Tm) using GraphPad Prism 6 (San Diego Calif.). Melting temperatures are represented as the mean and standard error of two biological replicates, each of which consisted of three technical replicates. Compounds not listed were not tested.

| SMILES | DSF Melting Temp [°C] |
| --- | --- |
| Cc1cc(-c2ccc3ccnc(N)c3c2)ccc1[C@@H](O)[C@H]1O[C@H](CO)[C@@H](O)[C@H](O)[C@@H]1O [Example 3, (2R,3S,4S,5S,6R)-2-((R)-(4-(1-aminoisoquinolin-7-yl)-2-methylphenyl)(hydroxy)methyl)-6-(hydroxymethyl)tetrahydro-2H-pyran-3,4,5-triol] | 77.7 |
| Cc1cc(-c2ccc3c(c2)C(=O)NCC3)ccc1[C@@H](O)[C@H]1O[C@H](CO)[C@@H](O)[C@H](O)[C@@H]1O [Example 4, 7-(4-((R)-hydroxy((2R,3S,4S,5S,6R)-3,4,5-trihydroxy-6-(hydroxymethyl)tetrahydro-2H-pyran-2-yl)methyl)-3-methylphenyl)-3,4-dihydroisoquinolin-1 (2H)-one] | 76.06 |
